A word on the Kd: it is a measure of binding affinity in units of concentration. The low end stands for tighter binding, the high end for weaker binding.

The test addresses T1, ASTN-2_701-1288 (Homo sapiens, UniProt O75129).
T1 construct: gene ASTN2; endodomain, residues 701-1288 in methods (crystal construct EGF-3 to C-terminus is printed 649-1288; borders may mix numberings); secreted from HEK293T, hexahistidine
T1 sequence (O75129 701-1288 isoform O75129-2): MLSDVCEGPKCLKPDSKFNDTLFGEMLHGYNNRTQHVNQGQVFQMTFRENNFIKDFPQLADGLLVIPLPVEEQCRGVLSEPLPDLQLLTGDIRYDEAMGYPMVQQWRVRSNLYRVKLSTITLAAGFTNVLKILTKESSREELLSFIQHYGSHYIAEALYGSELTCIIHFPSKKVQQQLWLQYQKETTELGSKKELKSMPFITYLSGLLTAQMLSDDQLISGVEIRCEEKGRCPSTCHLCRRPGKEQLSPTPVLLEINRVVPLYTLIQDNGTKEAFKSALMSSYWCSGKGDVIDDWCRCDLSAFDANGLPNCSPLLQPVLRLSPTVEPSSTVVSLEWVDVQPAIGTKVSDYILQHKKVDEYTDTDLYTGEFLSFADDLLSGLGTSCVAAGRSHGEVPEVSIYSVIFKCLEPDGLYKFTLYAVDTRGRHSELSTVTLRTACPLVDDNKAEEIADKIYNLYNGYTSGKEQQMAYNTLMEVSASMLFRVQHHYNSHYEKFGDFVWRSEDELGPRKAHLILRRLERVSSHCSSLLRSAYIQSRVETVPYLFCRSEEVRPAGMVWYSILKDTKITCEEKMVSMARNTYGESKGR
Description: SPR, Biacore T200, immobilised biotinylated ligand. It is filed as binding. As to conditions: pH 7.5, 20 °C, 150 mM NaCl; labelled compound (biotin, immobilised); one Kd printed jointly for PIP3 and PIP2; construct of this run not stated. On the technique in general: In SPR one partner is held on a chip, and binding of the other changes the refractive index at the surface.

Substance PtdIns(3,4,5)P3 (C-39B6a) showed a Kd of 30 µM.
The substance PtdIns(4,5)P2 (C-45B6a) displayed a Kd of 30 µM.

The record behind these values is publication PMC4892435, “Structure of astrotactin-2: a conserved vertebrate-specific and perforin-like membrane protein involved in neuronal development” (Open Biology, 2016).
